Test results taken from patent US8937062B2, “Compositions and methods for treating, reducing, ameliorating, or preventing infections caused by antibacterial drug-resistant bacteria” (Bausch & Lomb Incorporated, priority 2007, dated 2015).
Converted amounts (≈) assume the structure as drawn. Where two headings read alike, the source gives them in different places.

How the values were obtained:
[1] = test system: Methicillin-Resistant S. aureus Isolates; test: In vitro anti-bacterial activity, fourth test, Table 5; type: cell-based, Staphylococcus aureus; conditions: Staphylococcus aureus, read-out: MIC90
Description: In a fourth test, the anti-bacterial activity of the compound having Formula IV was tested against some methicillin-resistant S. aureus bacteria strains and compared to the anti-bacterial activity of three commercially available antibiotics: nadifloxacin (“NDFX”), ofloxacin (“OFLX”), and sparfloxacin (“SPFX”).

[2] = test system: APC-resistant Haemophilus influenza.; test: MIC90, agar plate dilution method (NCCLS), Table 2; type: cell-based; conditions: for MIC90 Range: APC-resistant Haemophilus influenza., 10 isolates; for MIC90: Haemophilus
Description: (§1) The MIC90 values for this test were determined by the agar plate dilution method according to the National Committee for Clinical Laboratory Standards (“NCCLS”).

[3] = test system: GM-resistant P. aeruginosa; test: MIC90, agar plate dilution method (NCCLS), Table 2; type: cell-based; conditions: 10 isolates; for MIC90: Pseudomonas aeruginosa
Description: as §1

[4] = test system: GM-resistant S. aureus; test: MIC90, agar plate dilution method (NCCLS), Table 2; type: cell-based; conditions: 10 isolates; for MIC90: Staphylococcus aureus
Description: as §1

[5] = test system: OFLX-resistant Enterobacteriaceae; test: MIC90, agar plate dilution method (NCCLS), Table 2; type: cell-based
Description: as §1

[6] = test system: OFLX-resistant S. aureus; test: MIC90, agar plate dilution method (NCCLS), Table 2; type: cell-based; conditions: 10 isolates; for MIC90: Staphylococcus aureus
Description: as §1

[7] = test system: PCG-resistant S. pneumoniae; test: MIC90, agar plate dilution method (NCCLS), Table 2; type: cell-based; conditions: 10 isolates; for MIC90: Streptococcus pneumoniae
Description: as §1

[8] = test system: Ofloxacin-resistant Enterobacteriaceae; test: organism not typed; type: cell-based
Source text: (§2) As disclosed above, most of these bacteria strains are also relevant to infections of the ear and upper respiratory tract.

[9] = test system: Gentamicin-resistant Pseudomonas aeruginosa; test: In vitro anti-bacterial activity, resistant clinical isolates, fifth test, Table 6; type: cell-based; conditions: read-out: MIC90
Source text: as §2

[10] = test system: Gentamicin-resistant Staphylococcus aureus; test: as above; type: cell-based; conditions: read-out: MIC90
Source text: as §2

[11] = test system: Ofloxacin-resistant Staphylococcus aureus; test: as above; type: cell-based; conditions: read-out: MIC90
Source text: as §2

[12] = test system: Penicillin-resistant Streptococcus pneumoniae; test: as above; type: cell-based; conditions: read-out: MIC90
Source text: as §2

[13] = test system: methicillin-resistant S. aureus; test: MIC90, Japanese Society of Chemotherapy guidelines (1993), Table 3; type: cell-based; conditions: Staphylococcus aureus, read-out: MIC90
Description: (§3) In a second test, compounds having Formulae IV and V, their racemic mixture, and OFLX were tested in vitro against S. aureus strains that are resistant to methicillin or penicillin. The test was conducted according to the guidelines of the Japanese Society of Chemotherapy (1993).

[14] = test system: penicillin-resistant S. aureus; test: as above; type: cell-based; conditions: Staphylococcus aureus, read-out: MIC90
Description: as §3

[15] = ATCC33591, Staphylococcus aureus (ATCC 33591)
[16] = ATCC33592, Staphylococcus aureus (ATCC 33592)
[17] = ATCC33593, Staphylococcus aureus (ATCC 33593)
[18] = Staphylococcus aureus (No. 395)
[19] = Staphylococcus aureus (No. 415)
[20] = Staphylococcus aureus (No. 419)
[21] = Staphylococcus aureus (No. 420)
[22] = Staphylococcus aureus (No. 421)

Row | Compound | MIC90 [1, 15] [µg/mL] | MIC90 [1, 16] [µg/mL] | MIC90 [1, 17] [µg/mL] | MIC90 [1, 18] [µg/mL] | MIC90 [1, 19] [µg/mL] | MIC90 [1, 20] [µg/mL] | MIC90 [1, 21] [µg/mL] | MIC90 [1, 22] [µg/mL] | MIC90 Range [2] | MIC90 ([2]; read-out: MIC90 Geometric Mean) [µg/mL] | MIC90 ([2]; read-out: MIC90 Value) [µg/mL] | MIC90 Range [3] [µg/mL] | MIC90 ([3]; read-out: MIC90 Geometric Mean) [µg/mL] | MIC90 ([3]; read-out: MIC90 Value) [µg/mL] | MIC90 ([4]; read-out: MIC90 Geometric Mean) [µg/mL] | MIC90 ([4]; read-out: MIC90 Value) [µg/mL] | MIC90 ([5]; read-out: MIC90 Geometric Mean) [µg/mL] | MIC90 ([5]; read-out: MIC90 Value) [µg/mL] | MIC90 ([6]; read-out: MIC90 Geometric Mean) [µg/mL] | MIC90 ([6]; read-out: MIC90 Value) [µg/mL] | further results
1 | CC1CCc2c(N3CCC(O)CC3)c(F)cc3c(=O)c(C(=O)O)cn1c23 (stereo not shown) [NDFX, nadifloxacin] | 0.006 (≈ 0.0166 µM) | 0.05 (≈ 0.139 µM) | 0.024 (≈ 0.0666 µM) | 0.024 (≈ 0.0666 µM) | 0.1 (≈ 0.277 µM) | 0.39 (≈ 1.08 µM) | 0.78 (≈ 2.16 µM) | 0.78 (≈ 2.16 µM) | – | – | – | – | – | – | – | – | – | – | – | – | –
2 | CCn1cc(C(=O)O)c(=O)c2cc(F)c(N3CCNCC3)cc21 [NFLX, norfloxacin] | – | – | – | – | – | – | – | – | ≦0.06 μg/ml | ≤ 0.06 | ≤ 0.06 | 0.5 to 128 | 5.66 (≈ 17.7 µM) | 128 (≈ 401 µM) | 48.5 (≈ 152 µM) | > 128 | 48.5 (≈ 152 µM) | 128 (≈ 401 µM) | 194 (≈ 608 µM) | > 128 | MIC90 Range ([5]; OFLX-resistant Enterobacteriaceae, 10 isolates): 16 to 128 µg/mL; MIC90 Range [7]: 2 to 8 µg/mL; MIC90 ([7]; read-out: MIC90 Geometric Mean): 4.29 µg/mL (≈ 13.4 µM); MIC90 ([7]; read-out: MIC90 Value): 8 µg/mL (≈ 25.1 µM); MIC90 [8]: 128 µg/mL (≈ 401 µM); MIC90 [9]: 128 µg/mL (≈ 401 µM); MIC90 [10]: 128 µg/mL (≈ 401 µM); MIC90 [11]: > 128 µg/mL; MIC90 [12]: 8 µg/mL (≈ 25.1 µM)
3 | C[C@@H]1CN(c2c(F)c(N)c3c(=O)c(C(=O)O)cn(C4CC4)c3c2F)C[C@H](C)N1 [SPFX, sparfloxacin] | 0.024 (≈ 0.0612 µM) | 0.1 (≈ 0.255 µM) | 0.024 (≈ 0.0612 µM) | 0.05 (≈ 0.127 µM) | 0.2 (≈ 0.51 µM) | 1.56 (≈ 3.98 µM) | 0.78 (≈ 1.99 µM) | 0.39 (≈ 0.994 µM) | – | – | – | – | – | – | – | – | – | – | – | – | –
4 | O=C1CCN(c2c(F)cc3c(=O)c(C(=O)O)cn(C4CC4)c3c2Cl)CCN1 [VI] | – | – | – | – | – | – | – | – | ≦0.06 μg/ml | ≤ 0.06 | ≤ 0.06 | 0.5 to 64 | 6.96 (≈ 17.7 µM) | 32 (≈ 81.3 µM) | 0.43 (≈ 1.09 µM) | 4 (≈ 10.2 µM) | 32 (≈ 81.3 µM) | 32 (≈ 81.3 µM) | 1.52 (≈ 3.86 µM) | 4 (≈ 10.2 µM) | MIC90 Range [4]: ≦0.006-4 μg/ml; MIC90 Range [6]: 0.25 to 8 µg/mL; MIC90 Range [7]: 0.13 to 0.25 µg/mL; MIC90 ([7]; read-out: MIC90 Geometric Mean): 0.14 µg/mL (≈ 0.356 µM); MIC90 ([7]; read-out: MIC90 Value): 0.13 µg/mL (≈ 0.33 µM)
5 | N[C@H]1CCCCN(c2c(F)cc3c(=O)c(C(=O)O)cn(C4CC4)c3c2Cl)C1 [V] | – | – | – | – | – | – | – | – | – | – | – | – | – | – | – | – | – | – | – | – | MIC90 ([13]; ATCC33591, S. aureus (ATCC 33591)): 0.1 µg/mL (≈ 0.254 µM); MIC90 ([13]; ATCC33592, S. aureus (ATCC 33592)): 0.05 µg/mL (≈ 0.127 µM); MIC90 ([13]; ATCC33593, S. aureus (ATCC 33593)): 0.05 µg/mL (≈ 0.127 µM); MIC90 ([13]; S. aureus (No. 395)): 0.1 µg/mL (≈ 0.254 µM); MIC90 ([13]; S. aureus (No. 415)): 0.05 µg/mL (≈ 0.127 µM); MIC90 ([13]; S. aureus (No. 419)): 0.1 µg/mL (≈ 0.254 µM); MIC90 ([13]; S. aureus (No. 420)): 0.05 µg/mL (≈ 0.127 µM); MIC90 ([13]; S. aureus (No. 421)): 0.1 µg/mL (≈ 0.254 µM); MIC90 ([14]; ATCC11632, S. aureus (ATCC 11632)): 0.05 µg/mL (≈ 0.127 µM); MIC90 ([14]; ATCC13301, S. aureus (ATCC 13301)): 0.05 µg/mL (≈ 0.127 µM)
